Data reported in US20080119548A1, “Control Of Feeding Behavior By Changing Neuronal Energy Balance” (priority 2004, published 2008).
Where two headings read alike, the source gives them in different places.

Tests used:
[1] = system: hypothalamic AMPKα (α1 and α2); assay: Western blot of phosphorylated AMPKα in hypothalamus; type: in vivo, mice; settings: 30 min after i.c.v. injection
Method: Hypothalami were dissected using as landmarks the optic chiasm rostrally, and the mammillary bodies caudally to a depth of 2 mm. Dissected hypothalamic and liver tissue were immediately frozen in liquid nitrogen. Tissues were homogenized in 200 μl of lysis buffer (50 mM Tris-HCl, pH 7.5, 250 mM sucrose, 5 mM sodium pyrophosphate, 50 mM NaF, 1 mM EDTA, 1 mM EGTA, 1 mM DTT, 0.5 mM PMSF, 0.1 mM benzamidine, 50 μg/ml leupeptin, 50 μg/ml soybean trypsin inhibitor). SDS detergent was added to a final 0.2%, and lysates were boiled for 5 min. After the supernatant was harvested, protein concentration was determined by BCA kit (Bio Rad). Phosphorylation of AMPKα was determined on a 4-15% gradient SDS-polyacrylamide gel using anti-phospho-AMPKα (α1 and α2, Thr172) antibody (1:1000, Cell Signaling). Anti-AMPKαt antibody (α1 and α2, 1:1000, Cell Signaling) was used as a loading control.

[2] = chronic subcutaneous AICAR 1 g/kg bodyweight for 4 weeks; cited from earlier work
[3] = Changes in bodyweight 24 hr after i.c.v. injection; type: in vivo, mice
Description: (d) Changes in bodyweight 24 hr after i.c.v. injection of C75, AICAR or compound C (n=4-10). Mice were implanted with permanent stainless steel cannulae into the lateral ventricle of the brain 0.6 mm caudal to Bregma, 1.2 mm lateral to the midline, and sunk to a depth of 2.2 mm below the surface of the skull. Implanted mice were housed in individual cages and utilized for i.c.v. and i.p. injections as indicated. C75 dissolved in RPMI1640 (Gibco-BRL), AICAR (Toronto Research Chemicals Inc) or compound […], Inc.) in saline was injected i.c.v., such that desired dose could be administered in a volume of 2.5 μl, while control groups received vehicle only. Injections were done immediately preceding dark onset and food intake measurements were taken at 1 hr (0-1 hr interval), 3 hr (1-3 hr interval), and 24 hr (3-24 hr interval) after dark onset. […]. treatment groups were i.p. injected with 5 mg/kg bodyweight C75 dissolved in […] of glucose-free RPMI 1 hr before the dark onset, followed by 3 μg/2.5 μl saline i.c.v. AICAR immediately preceding the dark onset. Control groups received 200 μl of glucose free RPMI 1 hr before lights off and 2.5 μl of saline. Administration of i.p. compound C (10 or 30 mg/kg bodyweight) or C75 (10 mg/kg bodyweight) was followed by food intake measurement at the same times indicated.

pCREB = assay: Immunohistochemistry of pCREB in the arcuate nucleus; type: in vivo, mice; settings: AICAR (3 mg) i.c.v., 20 hr after injection
Method: Free-floating sections were blocked in PBS containing 5% goat serum, 0.1% BSA, 0.05% Triton-X100, 1 mM NaF for 1 hr at room temperature and incubated with anti-phospho-AMPKα (α1 and α2) antibody (1:100) or anti-phospho-CREB antibody (1:500, Cell Signaling) in PBS containing 1% goat serum, 0.1% BSA, 0.05% Triton-X100, 1 mM NaF overnight at 4° C. Signal was visualized by Vectastain ABC kit (Vector). Images of in situ hybridization and immunohistochemistry were visualized using an Axiocam HRc digital camera (Carl Zeiss) and images were acquired using Improvision Openlab software, and quantified by NIH Image program (Macro).

hypothalamic NPY = system: hypothalamic NPY
Method: Hypothalamic total RNA was purified using Trizol reagent (Gibco-BRL) and Northern blot analysis using 15 μg of total RNA was performed as described by Kim, et al, Am J Physiol Endocrinol Metab., 283, […]-879 (2002). RNA was hybridized with random primed ^32P-labeled DNA probes made from cloned plasmids of mouse AGRP (Genebank #U89486), human NPY (XM004941), rat CART (U10071), and mouse POMC (AH005319). As a loading control, the probe for mouse GAPDH gene was used at the same blot. The signals were quantified using an image analyzer (Molecular Dynamics) and Imagequant software.

BALB/c male mice = assay: Measurement of food intake after i.c.v. or i.p. injection; type: in vivo; settings: for reduction in food intake: compound C 5 mg i.c.v.
Method: Male BALB/c mice (7-9 weeks) were purchased from Charles River Laboratories (and housed in a controlled-light (12 hr light/12 hr dark cycle) environment (lights on 0200-1400 h) and allowed ad libitum access to standard laboratory chow and water. For fasting, food was withdrawn from cage at the onset of the dark cycle for 24 hr, but ad libitum access to water was allowed.
Mice were implanted with permanent stainless steel cannulae into the lateral ventricle of the brain 0.6 mm caudal to Bregma, 1.2 mm lateral to the midline, and sunk to a depth of 2.2 mm below the surface of the skull. Implanted mice were housed in individual cages and utilized for i.c.v. and i.p. injections as indicated. C75 dissolved in RPMI1640 (Gibco-BRL), AICAR (Toronto Research Chemicals Inc) or compound C (46) (FASgen, Inc.) in saline was injected i.c.v., such that desired dose could be administered in a volume of 2.5 μl, while control groups received vehicle only. Injections were done immediately preceding dark onset and food intake measurements were taken at 1 hr (0-1 hr interval), 3 hr (1-3 hr interval), and 24 hr (3-24 hr interval) after dark onset. C75 i.p./AICAR i.c.v. treatment groups were i.p. injected with 5 mg/kg bodyweight C75 dissolved in […] of glucose-free RPMI 1 hr before the dark onset, followed by 3 μg/2.5 μl saline i.c.v. AICAR immediately preceding the dark onset. Control groups received 200 μl of glucose free RPMI 1 hr before lights off and 2.5 μl of saline. Administration of i.p. compound C (10 or 30 mg/kg bodyweight) or C75 (10 mg/kg bodyweight) was followed by food intake measurement at the same times indicated.

Compound: NC(=O)c1ncn([C@@H]2O[C@H](CO)[C@@H](O)[C@H]2O)c1N [AICAR, 5-aminoimidazole-4-carboxamide-1-b-D-ribofuranoside]
- C75-induced decrease in hypothalamic pAMPKα levels ([1]; i.p. C75 and i.c.v. AICAR): completely reversed
- hypothalamic pAMPKα level ([1]; i.p. RPMI and i.c.v. AICAR, vs vehicle): increased
- bodyweight [2]: no impact
- fat pad mass [2]: reduction in fat pad mass
- food intake [2]: no impact
- liver mass [2]: increase in liver mass
- bodyweight ([3]; AICAR single dose 3 μg i.c.v.): no significant effect on bodyweight
- pCREB level in the arcuate, % of control (pCREB): 231 % of control
- hypothalamic NPY expression (hypothalamic NPY; AICAR (3 mg) i.c.v., 20 hrs after administration, p<0.001): significantly increased
- NPY expression (hypothalamic NPY; AICAR i.c.v., within 5 hr (data not shown)): no change
- food intake, % of control (BALB/c male mice; AICAR 3 μg i.c.v., 3-24 hr): 135%
- total 24 hr food intake, % of control (BALB/c male mice; AICAR 3 μg i.c.v., total 24 hr): 130 % of control
- food intake, % of control (BALB/c male mice; AICAR 3 μg i.c.v., within 1 hr): 230%
- food intake at 1 hr, % of the amount of C75/saline treatment (BALB/c male mice; C75 5 mg/kg i.p. followed 1 hr later by AICAR 3 mg i.c.v., p<0.001): 346%

Compound: c1cc(-c2cnn3cc(-c4ccc(OCCN5CCCCC5)cc4)cnc23)ccn1 [compound C]
- bodyweight ([3]; compound C 5 mg i.c.v.): weight loss
- reduction in food intake (BALB/c male mice; 0-1 hr): 36.2%
- reduction in food intake (BALB/c male mice; 3-24 hr): 37.8%
- reduction in food intake (BALB/c male mice; over 24 hr): 35.6%
- food intake, % of control (BALB/c male mice; compound C 30 mg/kg bodyweight i.p., 0-1 hr): 27.4 % of control
- food intake, % of control (BALB/c male mice; compound C 30 mg/kg bodyweight i.p., 1-3 hr): 3.68 % of control
- food intake, % of control (BALB/c male mice; compound C 30 mg/kg bodyweight i.p., 3-24 hr): 65.7 % of control
- food intake, % of control (BALB/c male mice; compound C 30 mg/kg bodyweight i.p., total): 57.8 % of control
